According to ChEMBL document CHEMBL6074678, “Selectively Antagonizing the NOD1-Mediated Inflammatory Signaling Pathway Mitigates the Gastric Inflammation Induced by Helicobacter pylori Infection” (J Med Chem, 2024):

Legend:
[1] = target: T1, Nucleotide-binding oligomerization domain-containing protein 1 (Mus musculus, UniProt Q8BHB0); assay: Antagonist activity at mouse NOD1 expressed in HEK-Blue cells assessed as decrease in SEAP secretion incubated for 3 hrs followed by C12-iE-DAP stimulation for 20 hrs by spectrophotometry; format: cell-based, HEK-Blue mNOD1
T1 sequence (Q8BHB0 whole entry): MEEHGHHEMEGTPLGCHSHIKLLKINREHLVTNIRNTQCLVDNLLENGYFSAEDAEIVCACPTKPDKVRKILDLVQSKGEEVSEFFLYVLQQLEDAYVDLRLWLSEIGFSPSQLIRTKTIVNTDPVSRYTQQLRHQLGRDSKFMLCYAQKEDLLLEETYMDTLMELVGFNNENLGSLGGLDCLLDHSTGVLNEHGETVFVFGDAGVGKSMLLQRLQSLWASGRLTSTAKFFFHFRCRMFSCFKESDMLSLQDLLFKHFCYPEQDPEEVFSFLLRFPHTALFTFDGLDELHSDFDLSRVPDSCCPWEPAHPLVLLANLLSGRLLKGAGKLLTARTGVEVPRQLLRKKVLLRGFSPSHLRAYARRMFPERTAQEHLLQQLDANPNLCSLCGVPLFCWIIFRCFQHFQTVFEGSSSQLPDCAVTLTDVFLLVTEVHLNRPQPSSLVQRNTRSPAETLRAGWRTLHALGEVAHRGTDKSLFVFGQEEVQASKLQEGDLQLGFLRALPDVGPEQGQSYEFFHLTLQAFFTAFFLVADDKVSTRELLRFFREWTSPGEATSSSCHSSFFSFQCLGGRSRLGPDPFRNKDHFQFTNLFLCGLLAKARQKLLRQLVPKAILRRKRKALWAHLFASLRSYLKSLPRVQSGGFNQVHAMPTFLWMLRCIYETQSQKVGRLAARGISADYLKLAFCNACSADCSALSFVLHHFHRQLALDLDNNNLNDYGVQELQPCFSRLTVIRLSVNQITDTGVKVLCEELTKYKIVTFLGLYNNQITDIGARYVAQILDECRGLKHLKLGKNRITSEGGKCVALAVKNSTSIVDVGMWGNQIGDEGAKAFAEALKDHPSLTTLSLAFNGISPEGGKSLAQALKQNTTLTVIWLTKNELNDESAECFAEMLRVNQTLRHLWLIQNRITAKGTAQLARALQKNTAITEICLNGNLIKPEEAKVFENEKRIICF

[2] = target: T2, Nucleotide-binding oligomerization domain-containing protein 1 (Homo sapiens, UniProt Q9Y239); assay: Antagonist activity at human NOD1 expressed in HEK-Blue cells assessed as decrease in SEAP secretion incubated for 3 hrs followed by C12-iE-DAP stimulation for 20 hrs by spectrophotometry; format: cell-based, HEK-Blue hNOD1
T2 sequence (Q9Y239 whole entry): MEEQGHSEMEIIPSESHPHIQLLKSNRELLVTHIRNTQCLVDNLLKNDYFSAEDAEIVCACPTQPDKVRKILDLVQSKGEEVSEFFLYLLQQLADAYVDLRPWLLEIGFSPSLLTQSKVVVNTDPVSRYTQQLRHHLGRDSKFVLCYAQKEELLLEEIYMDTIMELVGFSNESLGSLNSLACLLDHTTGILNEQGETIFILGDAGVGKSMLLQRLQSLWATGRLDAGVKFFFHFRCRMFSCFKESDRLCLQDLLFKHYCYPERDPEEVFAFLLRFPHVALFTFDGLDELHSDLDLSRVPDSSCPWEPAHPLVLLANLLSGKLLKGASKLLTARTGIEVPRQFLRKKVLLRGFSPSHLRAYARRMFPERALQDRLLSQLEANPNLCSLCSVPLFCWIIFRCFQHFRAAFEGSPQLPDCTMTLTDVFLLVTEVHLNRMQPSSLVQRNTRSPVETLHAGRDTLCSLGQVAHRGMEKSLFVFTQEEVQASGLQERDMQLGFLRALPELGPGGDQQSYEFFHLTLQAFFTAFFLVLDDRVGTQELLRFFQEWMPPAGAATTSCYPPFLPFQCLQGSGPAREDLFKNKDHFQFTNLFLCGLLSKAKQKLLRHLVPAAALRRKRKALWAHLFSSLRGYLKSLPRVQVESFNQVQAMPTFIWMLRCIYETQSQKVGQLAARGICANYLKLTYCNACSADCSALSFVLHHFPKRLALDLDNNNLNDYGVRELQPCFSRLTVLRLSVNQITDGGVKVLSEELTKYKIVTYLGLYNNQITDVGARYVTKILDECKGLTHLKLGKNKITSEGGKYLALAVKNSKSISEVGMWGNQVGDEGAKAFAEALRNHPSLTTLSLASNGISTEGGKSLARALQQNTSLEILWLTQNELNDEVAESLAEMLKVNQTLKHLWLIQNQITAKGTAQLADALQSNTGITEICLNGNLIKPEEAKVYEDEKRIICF

[3] = target: T3, Nucleotide-binding oligomerization domain-containing protein 1 (Mus musculus) (UniProt Q8BHB0); assay: Antagonist activity at mouse NOD1 expressed in HEK-Blue cells assessed as decrease in SEAP secretion at 1 uM incubated for 3 hrs followed by C12-iE-DAP stimulation for 20 hrs by spectrophotometry relative to control; format: cell-based
T3 sequence (whole entry): T1 sequence (Q8BHB0 whole entry)

[4] = target: T3, Nucleotide-binding oligomerization domain-containing protein 1 (Mus musculus); assay: Antagonist activity at mouse NOD1 expressed in HEK-Blue cells assessed as decrease in SEAP secretion at 5 uM incubated for 3 hrs followed by C12-iE-DAP stimulation for 20 hrs by spectrophotometry relative to control; format: cell-based
[5] = HEK-Blue mNOD1, filed as antagonist, time 23.0 hrs

O=c1c2ccncc2nc(Cl)n1-c1ccc(Cl)c(NS(=O)(=O)c2cc(F)ccc2F)c1
IC50 [1]: 0.165 µM
IC50 [2]: 0.0084 µM
inhibition [3, 5]: 81.8%

O=c1c2cc(Cl)ccc2nc(NCCCN2CCOCC2)n1-c1ccc(Cl)c(NS(=O)(=O)c2ccccc2F)c1
inhibition [4, 5]: 46.5%
IC50 [2]: 0.032 µM

N#Cc1ccc2nc(Cl)n(-c3ccc(Cl)c(NS(=O)(=O)c4ccccc4F)c3)c(=O)c2c1
IC50 [1]: 0.117 µM
IC50 [2]: 0.0097 µM
inhibition [3, 5]: 83.6%

O=c1c2cc(C(F)(F)F)ccc2nc(Cl)n1-c1ccc(Cl)c(NS(=O)(=O)c2ccccc2F)c1
IC50 [1]: 0.624 µM

O=c1c2ccncc2nc(Cl)n1-c1ccc(Cl)c(NS(=O)(=O)c2cc(F)c(F)cc2F)c1
IC50 [1]: 0.159 µM
IC50 [2]: 0.0075 µM
inhibition [3, 5]: 81.8%

Cc1nc2ccc(Cl)cc2c(=O)n1-c1ccc(Cl)c(NC(=O)c2ccccc2F)c1
inhibition ([4]; HEK-Blue mNOD1, time 23.0 hrs): < 10%

COc1cc2nc(Cl)n(-c3ccc(Cl)c(NS(=O)(=O)c4ccccc4F)c3)c(=O)c2cc1Cl
inhibition ([3]; HEK-Blue mNOD1, time 23.0 hrs): 39.3%

C=CS(=O)(=O)Nc1cc(-n2c(Cl)nc3cnc(Cl)cc3c2=O)ccc1Cl
IC50 [1]: 1.15 µM
inhibition [3, 5]: 70.2%

O=c1c2ccncc2nc(C(F)F)n1-c1ccc(Cl)c(NS(=O)(=O)c2ccccc2F)c1
inhibition ([3]; HEK-Blue mNOD1, time 23.0 hrs): 19.1%

O=c1c2cc(Cl)ncc2nc(Cl)n1-c1ccc(Cl)c(NS(=O)(=O)c2ccccc2Cl)c1
IC50 [1]: 0.285 µM

CC(=O)Nc1ccc(Cl)c(NS(=O)(=O)c2ccccc2F)c1
inhibition ([4]; HEK-Blue mNOD1, time 23.0 hrs): < 10%

O=c1c2cc(C(F)(F)F)ccc2nc(Cl)n1-c1ccc(Cl)c(NS(=O)(=O)c2c(F)cccc2F)c1
IC50 [1]: 0.404 µM
inhibition [3, 5]: 65.3%

O=c1c2cc(Cl)ncc2nc(Cl)n1-c1ccc(Cl)c(NS(=O)(=O)c2c(F)cccc2F)c1
IC50 [1]: 0.067 µM
IC50 [2]: 0.0013 µM
inhibition [3, 5]: 87.5%

O=c1c2ccncc2nc(Cl)n1-c1ccc(Cl)c(NS(=O)(=O)c2ccc([N+](=O)[O-])cc2F)c1
IC50 [1]: 0.133 µM

O=c1c2cc(Cl)ncc2nc(Cl)n1-c1ccc(Cl)c(NS(=O)(=O)c2ccc(Cl)s2)c1
IC50 [1]: 0.3 µM
inhibition [3, 5]: 76.5%

O=c1c2cc(OC(F)(F)F)ccc2nc(Cl)n1-c1ccc(Cl)c(NS(=O)(=O)c2c(F)cccc2F)c1
IC50 [1]: 2.65 µM
inhibition ([3]; HEK-Blue mNOD1, time 23.0 hrs): 36.5%

O=c1c2cc(Cl)ncc2nc(Cl)n1-c1ccc(Cl)c(NS(=O)(=O)c2cccnc2)c1
IC50 [1]: 0.381 µM

O=c1c2cc(F)c(F)cc2nc(Cl)n1-c1ccc(Cl)c(NS(=O)(=O)c2ccccc2F)c1
IC50 [1]: 1.3 µM
inhibition [3, 5]: 55.3%

Cc1nc2ccc(Cl)cc2c(=O)n1-c1ccc(Cl)c(C(=O)N2Cc3ccccc3S2(=O)=O)c1
inhibition ([4]; HEK-Blue mNOD1, time 23.0 hrs): < 10%

O=c1c2cc(Cl)ncc2nc(Cl)n1-c1ccc(Cl)c(NS(=O)(=O)c2ccc3c(c2)CCO3)c1
IC50 [1]: 0.673 µM

Cn1cc(S(=O)(=O)Nc2cc(-n3c(Cl)nc4cnc(Cl)cc4c3=O)ccc2Cl)cn1
IC50 [1]: 0.267 µM
IC50 [2]: 0.0031 µM
inhibition [3, 5]: 77.6%

O=c1c2ccccc2nc(Cl)n1-c1ccc(Cl)c(NS(=O)(=O)c2ccccc2F)c1
inhibition ([3]; HEK-Blue mNOD1, time 23.0 hrs): < 10%

Cc1nc2ccc(Cl)cc2c(=O)n1NS(=O)(=O)c1ccc(Cl)cc1
inhibition ([4]; HEK-Blue mNOD1, time 23.0 hrs): < 10%

O=c1c2cc(Cl)ncc2nc(Cl)n1-c1ccc(Cl)c(NS(=O)(=O)c2ccc3ncsc3c2)c1
IC50 [1]: 0.132 µM
inhibition [3, 5]: 85.7%

N[C@@H](CCC(=O)N[C@@H](CSc1nc2cnccc2c(=O)n1-c1ccc(Cl)c(NS(=O)(=O)c2ccccc2F)c1)C(=O)NCC(=O)O)C(=O)O
inhibition ([3]; HEK-Blue mNOD1, time 23.0 hrs): -1%

Cc1nc2ccc(Cl)cc2c(=O)n1-c1ccc(Cl)c(N)c1
inhibition ([4]; HEK-Blue mNOD1, time 23.0 hrs): < 10%

NC(=O)c1nc2ccc(Cl)cc2c(=O)n1-c1ccc(Cl)c(NS(=O)(=O)c2ccccc2F)c1
inhibition [4, 5]: 48.2%

O=c1c2cc(Cl)ncc2nc(Cl)n1-c1ccc(Cl)c(NS(=O)(=O)N2CCCCC2)c1
IC50 [2]: 0.126 µM
inhibition ([3]; HEK-Blue mNOD1, time 23.0 hrs): 28.7%

O=c1c2cc(Br)ccc2nc(Cl)n1-c1ccc(Cl)c(NS(=O)(=O)c2ccccc2F)c1
IC50 [2]: 0.018 µM
inhibition [3, 5]: 40.5%

Cc1nc2ccc(Cl)cc2c(=O)n1CCCNS(=O)(=O)c1ccccc1F
inhibition ([4]; HEK-Blue mNOD1, time 23.0 hrs): < 10%

O=c1c2cc(-c3cccc(Cl)c3)ccc2nc(Cl)n1-c1ccc(Cl)c(NS(=O)(=O)c2ccccc2F)c1
inhibition ([3]; HEK-Blue mNOD1, time 23.0 hrs): 15.6%

O=c1c2ccncc2nc(Cl)n1-c1ccc(Cl)c(NS(=O)(=O)c2ccc(F)cc2F)c1
IC50 [1]: 0.193 µM
inhibition [3, 5]: 80.5%

O=c1c2nc(Cl)cnc2nc(Cl)n1-c1ccc(Cl)c(NS(=O)(=O)c2ccccc2F)c1
IC50 [1]: 1.23 µM

O=c1c2cc([N+](=O)[O-])ccc2nc(Cl)n1-c1ccc(Cl)c(NS(=O)(=O)c2ccccc2F)c1
IC50 [1]: 0.86 µM
IC50 [2]: 0.0091 µM
inhibition [3, 5]: 52.1%

Cc1noc(C)c1S(=O)(=O)Nc1cc(-n2c(Cl)nc3cnc(Cl)cc3c2=O)ccc1Cl
IC50 [1]: 0.559 µM

Cc1nc2ccc(Cl)cc2c(=O)n1-c1ccc(Cl)c(C(=O)O)c1
inhibition ([4]; HEK-Blue mNOD1, time 23.0 hrs): < 10%

CS(=O)(=O)c1ccc2nc(Cl)n(-c3ccc(Cl)c(NS(=O)(=O)c4ccc([N+](=O)[O-])cc4F)c3)c(=O)c2c1
IC50 [1]: 0.199 µM
inhibition [3, 5]: 82.3%

Cc1nc2ccc(Cl)cc2c(=O)n1-c1ccc(Cl)c(S(=O)(=O)Nc2ccccc2F)c1
inhibition ([4]; HEK-Blue mNOD1, time 23.0 hrs): 21.1%

COc1ccc2nc(Cl)n(-c3ccc(Cl)c(NS(=O)(=O)c4ccccc4F)c3)c(=O)c2c1
inhibition ([3]; HEK-Blue mNOD1, time 23.0 hrs): < 10%

Nc1ccc(Cl)cc1C(=O)Nc1ccc(Cl)c(NS(=O)(=O)c2ccccc2F)c1
inhibition ([4]; HEK-Blue mNOD1, time 23.0 hrs): 32.9%

CS(=O)(=O)c1ccc2nc(Cl)n(-c3ccc(Cl)c(NS(=O)(=O)c4ccccc4F)c3)c(=O)c2c1
IC50 [1]: 0.11 µM
IC50 [2]: 0.0044 µM
inhibition [3, 5]: 88.9%

CCOC(=O)c1nc2ccc(Cl)cc2c(=O)n1-c1ccc(Cl)c(NS(=O)(=O)c2ccccc2F)c1
inhibition ([4]; HEK-Blue mNOD1, time 23.0 hrs): 11.4%

N#Cc1ccccc1S(=O)(=O)Nc1cc(-n2c(Cl)nc3cnc(Cl)cc3c2=O)ccc1Cl
IC50 [1]: 0.121 µM
IC50 [2]: 0.0012 µM
inhibition [3, 5]: 86.3%

O=c1c2ccncc2nc(C(F)(F)F)n1-c1ccc(Cl)c(NS(=O)(=O)c2ccccc2F)c1
inhibition ([3]; HEK-Blue mNOD1, time 23.0 hrs): 7.7%
